Data: article PMC4858918, “Improving the N-terminal diversity of sansanmycin through mutasynthesis” (Microbial Cell Factories, 2016)
In brackets after ≈: the same amount, converted by molar mass.

Experiments:
[1] = Stability determination in KH2PO4 buffer; format: physicochemical; settings: chemical stability, 0.05 M KH2PO4 buffer pH 6.0, room temperature (25 °C), HPLC peak areas, three parallel repeats
Procedure: As it is easier to get enough amount of sansanmycin MX-2 and MX-4, the stability test of sansanmycin A, MX-2 and MX-4 was performed in KH2PO4 buffer (pH 6.0) at room temperature.
Fig. 8 Stability of sansanmycin A, MX-2 and MX-4. a HPLC analysis of sansanmycin A at indicated days in KH2PO4 buffer (pH 6.0) at room temperature. b The changes of the level of sansanmycin A, MX-2 and MX-4 over time. All samples were analyzed by HPLC and quantified according to the areas of peaks. blue line, sansanmycin MX-2; red line, sansanmycin MX-4; green line, sansanmycin A
To dissect the stability of sansanmycin A and other sansanmycin analogues, compounds were dissolved in 0.05 M KH2PO4 buffer (pH adjusted to 6.0 with NaOH). All samples were incubated at 25 °C for 9 days. Each sample has three parallel repeats. Residual analogues were analyzed by HPLC and quantified by the peak areas.

[2] = test system: M. tuberculosis H37Rv; test: MIC, microplate Alamar blue assay (MABA); format: cell-based; settings: Mycobacterium tuberculosis, standard and susceptible strain
[3] = test system: E. coli ΔtolC mutant; test: MIC, microdilution test (CLSI); settings: Mueller-Hinton broth, 10^6 cells/ml, 37 °C, 24 h, visual observation, triplicate
[4] = test system: P. aeruginosa 11; test: MIC, microdilution test (CLSI); settings: Pseudomonas aeruginosa, 11, 24 h, read-out: MIC P. aeruginosa 11
[5] = test system: B. subtilis CMCC (B) 63501; test: MIC, microdilution test (CLSI); settings: Bacillus subtilis, 24 h, read-out: MIC B. subtilis CMCC (B) 63501

Row | SMILES | MIC [2] [µg/mL] | also measured
1 | CSCC[C@H](NC(=O)N[C@@H](Cc1c[nH]c2ccccc12)C(=O)O)C(=O)NC(C(=O)N/C=C1/CC(O)C(n2ccc(=O)[nH]c2=O)O1)C(C)N(C)C(=O)[C@@H](N)Cc1cccc(O)c1 (some centres unmarked) [A, sansanmycin A] |  | compound remained after 6 days of incubation [1]: less than 10%
2 | CC[C@@H](CO)NCCN[C@@H](CC)CO [Ethambutol] | 0.5 (≈ 2.45 µM) | 
3 | NNC(=O)c1ccncc1 [Isoniazid] | 0.125 (≈ 0.911 µM) | 
4 | CO[C@H]1/C=C/O[C@@]2(C)Oc3c(C)c(O)c4c(O)c(c(/C=N/N5CCN(C)CC5)c(O)c4c3C2=O)NC(=O)/C(C)=C\C=C\[C@H](C)[C@H](O)[C@@H](C)[C@@H](O)[C@@H](C)[C@H](OC(C)=O)[C@@H]1C [Rifampicin] | < 0.06 | 
5 | [H]/N=C(/N)N[C@H]1[C@H](O)[C@@H](O)[C@H](O[C@@H]2O[C@@H](C)[C@](O)(C=O)[C@H]2O[C@@H]2O[C@@H](CO)[C@H](O)[C@@H](O)[C@@H]2NC)[C@@H](N/C(N)=N\[H])[C@@H]1O [Streptomycin] | 0.25 (≈ 0.43 µM) | MIC E. coli ΔtolC [3]: 16 µg/mL (≈ 27.5 µM); MIC [4]: 4 µg/mL (≈ 6.88 µM); MIC [5]: 2 µg/mL (≈ 3.44 µM)
